{"source": "patent US20120214846A1", "about": "“HEXAHYDROCYCLOPENTYL[F]INDAZOLE PYRIDYL ETHANOLS AND DERIVATIVES THEREOF AS SELECTIVE GLUCOCORTICOID RECEPTOR MODULATORS” (MERCK SHARP & DOHME CORP, priority 2009, published 2012)", "key": {"Solubility at pH 2": {"test": "Solubility at pH 2", "format": "physicochemical", "details": "Table 4, literature compounds"}, "[1]": {"test_system": "female Sprague-Dawley rats, oxazolone (OX) contact dermatitis", "test": "In Vivo Inflammation Assay (oxazolone contact dermatitis model)", "design": "key to Inflammation Assay Glucose Effect / GL *: +: the glucose level increased compared to vehicle; −: the glucose level decreased compared to vehicle", "details": "Table 4, literature compounds", "experimental": "In Vivo Inflammation Assay\nIntact adult (6 month old) female Sprague-Dawley rats are used in the oxazolone (OX) contactdermatitis model. Rats were sensitized on the ventral abdomen with OX on Day 0. On Days 7 and 9, a randomly-selected ear was challenged (same ear each time) with OX; the other was treated with vehicle. Daily treatment begun on Day 7 and continued for 7d with test compounds at different doses and 1.3 mpk 6-methlyprednisolone or 0.1 mpk DEX as positive controls. The thickness of both ears are measured on Days 11 and 14. Necropsy occurred on Day 14. The rat is first weighed, then anesthetized in a CO2 chamber until near death. Approximately 5 ml whole blood is obtained by cardiac puncture. The rat is then examined for certain signs of death and completeness. Tissues are dissected in a highly stylized fashion. Then the following endpoints were evaluated: a) inhibiting ear inflammation induced by oxazalone, b) raising serum insulin, c) reducing serum ACTH, d) reducing spleen weight, e) reducing skin thickness, f) reducing body weight, g) increasing expression of bone-related genes with potential relationship to negative glucocorticoid effects on bone; e) changes in molecular markers that correlate with skin inflammation, skin thinning, muscle atrophy and glucose metabolism in liver. All blood samples were collected between 1330-1530 hours, ˜4-5 hrs after the last compound treatment.\nPrimary data for this assay are left and right ear thickness. Inter-ear thickness difference (etd) is used for the estimating the level of inflammation and effectiveness of the compounds is determined by their ability to reduce the increase the thickness of the inflamed ear. Back of the rat skin thickness, spleen weight, serum insulin as well as the effects of gcs on the expression of molecular markers in skin inflammation, skin atrophy, muscle atrophy and glucose metabolism in liver are measured. Data are analyzed by anova plus fisher plsd post-hoc test to identify intergroup differences."}}, "data": [{"smiles": "C[C@]12Cc3cnn(-c4ccc(F)cc4)c3C=C1CCC[C@@H]2[C@@H](O)c1ccc(F)cc1", "note": "[Ex. 32 WO 03/086294 A2, reference compound]", "values": [{"measurement": "solubility", "setting": "Solubility at pH 2", "result": "poor"}, {"measurement": "AI*", "setting": "[1]; anti-inflammatory effect", "result": "+ (the anti-inflammatory activity was equal to or greater than 40% of the effect generated by the control compound)"}, {"measurement": "GL *", "setting": "[1]; glucose effect", "result": "+"}]}]}
